Laboratory results: ChEMBL document CHEMBL5338758, “Design, Synthesis, and Bioevaluation of Novel MyD88 Inhibitor c17 against Acute Lung Injury Derived from the Virtual Screen” (J Med Chem, 2023)
Calls of active or inactive are those of the source. The rule behind the calls is not given here.

How the values were obtained:
[1] = Drug distribution in Sprague-Dawley rat liver at 1 mg/kg, iv measured after 4 hrs by LC-MS/MS analysis; assay type: ADME, organism-based; conditions: read-out: Drug uptake
[2] = Drug distribution in Sprague-Dawley rat spleen at 1 mg/kg, iv measured after 4 hrs by LC-MS/MS analysis; assay type: ADME, organism-based; conditions: read-out: Drug uptake
[3] = Half-life in Sprague-Dawley rat at 1 mg/kg, iv measured at 5 to 1440 min by LC-MS/MS analysis; assay type: ADME, organism-based; conditions: in vivo, time 5-1440 min
[4] = Stability of compound in rat serum at 25 degreeC measured every 2 hrs for 24 hrs by HPLC analysis; assay type: ADME, cell-free
J774.A1 [5] = assay: Inhibition of NF-kappaB pathway in LPS-induced mouse J774.A1 cells assessed as reduction in p65 nuclear reactivity preincubated with compound for 2 hrs followed by LPS-stimulation and measured after 15 mins by DAPI staining based immunofluorescence analysis; assay type: cell-based; conditions: time 135.0 min
[6] = Drug distribution in Sprague-Dawley rat liver at 1 mg/kg, iv measured after 2 hrs by LC-MS/MS analysis; assay type: ADME, organism-based; conditions: read-out: Drug uptake
J774.A1 [7] = assay: Inhibition of NF-kappaB pathway in LPS-induced mouse J774.A1 cells assessed as decrease in p65 nuclear translocation preincubated with compound for 2 hrs followed by LPS-stimulation and measured after 15 mins by Western blot analysis; assay type: cell-based; conditions: dose 10-40 µM, time 135.0 min
[8] = Drug distribution in Sprague-Dawley rat spleen at 1 mg/kg, iv measured after 0.5 hrs by LC-MS/MS analysis; assay type: ADME, organism-based; conditions: read-out: Drug uptake
[9] = Drug distribution in Sprague-Dawley rat brain at 1 mg/kg, iv measured after 2 hrs by LC-MS/MS analysis; assay type: ADME, organism-based; conditions: read-out: Drug uptake
[10] = Drug distribution in Sprague-Dawley rat liver at 1 mg/kg, iv measured after 0.5 hrs by LC-MS/MS analysis; assay type: ADME, organism-based; conditions: read-out: Drug uptake
J774.A1 [11] = assay: Anti-inflammatory activity in mouse J774.A1 cells assessed as inhibition of LPS-induced IL-6 production pre-stimulated with LPS for 24 hrs followed by compound addition and measured after 0.5 hrs by ELISA analysis; assay type: functional, cell-based
[12] = Drug distribution in Sprague-Dawley rat heart at 10 mg/kg, po measured after 1 hrs by LC-MS/MS analysis; assay type: ADME, organism-based; conditions: read-out: Drug uptake
[13] = Drug distribution in Sprague-Dawley rat heart at 10 mg/kg, po measured after 8 hrs by LC-MS/MS analysis; assay type: ADME, organism-based; conditions: read-out: Drug uptake
J774.A1 [14] = assay: Cytotoxicity against mouse J774.A1 cells assessed as reduction in cell survival incubated for 24 hrs by MTT assay; assay type: toxicity, cell-based; conditions: j774.a1, 24 h
[15] = Drug distribution in Sprague-Dawley rat spleen at 10 mg/kg, po measured after 1 hrs by LC-MS/MS analysis; assay type: ADME, organism-based; conditions: read-out: Drug uptake
Mus musculus [16] = assay: Anti-inflammatory activity against LPS-induced […] mouse model of […] assessed as alleviation of tissue destruction in lung at 20 mg/kg, po pre-treated with compound for 30 mins followed by LPS stimulation and measured after 6 hrs by H&E staining based histopathological analysis; assay type: functional, organism-based; conditions: time 6.5 hrs
Mus musculus [17] = assay: Anti-inflammatory activity against LPS-induced […] mouse model of […] assessed as decrease in IL-6 level in serum at 20 mg/kg, po pre-treated with compound for 30 mins followed by LPS stimulation and measured after 6 hrs; assay type: functional, organism-based; conditions: time 6.5 hrs
[18] = Drug distribution in Sprague-Dawley rat heart at 1 mg/kg, iv measured after 2 hrs by LC-MS/MS analysis; assay type: ADME, organism-based; conditions: read-out: Drug uptake
[19] = Drug distribution in Sprague-Dawley rat spleen at 10 mg/kg, po measured after 8 hrs by LC-MS/MS analysis; assay type: ADME, organism-based; conditions: read-out: Drug uptake
[20] = Drug distribution in Sprague-Dawley rat liver at 10 mg/kg, po measured after 1 hrs by LC-MS/MS analysis; assay type: ADME, organism-based; conditions: read-out: Drug uptake
[21] = Drug distribution in Sprague-Dawley rat kidney at 10 mg/kg, po measured after 3 hrs by LC-MS/MS analysis; assay type: ADME, organism-based; conditions: read-out: Drug uptake
[22] = Drug distribution in Sprague-Dawley rat heart at 1 mg/kg, iv measured after 4 hrs by LC-MS/MS analysis; assay type: ADME, organism-based; conditions: read-out: Drug uptake
J774.A1 [23] = assay: Anti-inflammatory activity in mouse J774.A1 cells assessed as inhibition of LPS-induced TNF-alpha production at 10 uM pre-stimulated with LPS for 24 hrs followed by compound addition and measured after 0.5 hrs by ELISA analysis relative to control; assay type: functional
[24] = Drug distribution in Sprague-Dawley rat spleen at 10 mg/kg, po measured after 3 hrs by LC-MS/MS analysis; assay type: ADME, organism-based; conditions: read-out: Drug uptake
[25] = Cmax in Sprague-Dawley rat at 1 mg/kg, iv measured at 5 to 1440 min by LC-MS/MS analysis; assay type: ADME, organism-based; design: time upper 1440 min, dose 1 mg/kg, time lower 5 min, route iv; conditions: in vivo
[26] = Tmax in Sprague-Dawley rat at 10 mg/kg, po measured at 15 to 1440 min by LC-MS/MS analysis; assay type: ADME, organism-based; conditions: in vivo, time 15-1440 min
[27] = Drug distribution in Sprague-Dawley rat lung at 1 mg/kg, iv measured after 2 hrs by LC-MS/MS analysis; assay type: ADME, organism-based; conditions: read-out: Drug uptake
[28] = Drug distribution in Sprague-Dawley rat kidney at 1 mg/kg, iv measured after 0.5 hrs by LC-MS/MS analysis; assay type: ADME, organism-based; conditions: read-out: Drug uptake
[29] = Half-life in Sprague-Dawley rat at 10 mg/kg, po measured at 15 to 1440 min by LC-MS/MS analysis; assay type: ADME, organism-based; conditions: in vivo, time 15-1440 min
[30] = Drug distribution in Sprague-Dawley rat kidney at 10 mg/kg, po measured after 1 hrs by LC-MS/MS analysis; assay type: ADME, organism-based; conditions: read-out: Drug uptake
Mus musculus [31] = assay: Anti-inflammatory activity against LPS-induced […] mouse model of […] assessed as decrease in TNF-alpha level in BALF at 20 mg/kg, po pre-treated with compound for 30 mins followed by LPS stimulation and measured after 6 hrs; assay type: functional, organism-based; conditions: time 6.5 hrs
[32] = AUC (0 to t) in Sprague-Dawley rat at 10 mg/kg, po measured at 15 to 1440 min by LC-MS/MS analysis; assay type: ADME, organism-based; design: time 15-1440 min, dose 10 mg/kg, route po; conditions: in vivo
[33] = Drug distribution in Sprague-Dawley rat lung at 10 mg/kg, po measured after 8 hrs by LC-MS/MS analysis; assay type: ADME, organism-based; conditions: read-out: Drug uptake
Mus musculus [34] = assay: Anti-inflammatory activity against LPS-induced […] mouse model of […] assessed as decrease in IL-6 level in BALF at 20 mg/kg, po pre-treated with compound for 30 mins followed by LPS stimulation and measured after 6 hrs; assay type: functional, organism-based; conditions: time 6.5 hrs
[35] = Drug distribution in Sprague-Dawley rat heart at 1 mg/kg, iv measured after 0.5 hrs by LC-MS/MS analysis; assay type: ADME, organism-based; conditions: read-out: Drug uptake

## COc1ccc(NS(=O)(=O)c2ccc(N3CCN(Cc4cccc([N+](=O)[O-])c4)CC3)c([N+](=O)[O-])c2)cn1
[1]
  concentration at 4 h: 137 ng/g
[2]
  concentration at 4 h: 113 ng/g
[3]
  half-life: 1.1 h
[4]
  Stability: Stable
J774.A1 [5]
  inhibition: Active
[6]
  concentration at 2 h: 192 ng/g
J774.A1 [7]
  inhibition: Dose-Dependent Effect
[8]
  concentration at 0.5 h: 32.2 ng/g
[9]
  concentration at 2 h: 0.66 ng/g
[10]
  concentration at 0.5 h: 166 ng/g
J774.A1 [11]
  IC50: 2170 nM
[12]
  concentration at 1 h: 10.6 ng/g
[13]
  concentration at 8 h: 452 ng/g
J774.A1 [14]
  Activity: Non-Toxic
[15]
  concentration at 1 h: 78.8 ng/g
Mus musculus [16]
  Activity: Active
Mus musculus [17]
  Activity: Active
[18]
  concentration at 2 h: 118 ng/g
[19]
  concentration at 8 h: 137 ng/g
[20]
  concentration at 1 h: 267 ng/g
[21]
  concentration at 3 h: 3.31 ng/g
[22]
  concentration at 4 h: 275 ng/g
J774.A1 [23]
  inhibition at 10 µM: 36.7%
[24]
  concentration at 3 h: 32 ng/g
[25]
  Cmax: 2770 ng/mL
[26]
  Tmax: 0.8 h
[27]
  concentration at 2 h: 206 ng/g
[28]
  concentration at 0.5 h: 52.5 ng/g
[29]
  half-life: 7 h
[30]
  concentration at 1 h: 4.15 ng/g
Mus musculus [31]
  Activity: Active
[32]
  AUCt: 68163 ng·h/mL
[33]
  concentration at 8 h: 527 ng/g
Mus musculus [34]
  Activity: Active
[35]
  concentration at 0.5 h: 52.1 ng/g
